Test results as given in PMC12362585, “Development and Preclinical Characterization of [^18F]H3-2406 and [^18F]H3-2407 for Positron Emission Tomography Imaging of the Histamine Subtype‑3 Receptor” (Journal of Medicinal Chemistry, 2025).

Assay: Ex vivo whole-body biodistribution
Format: in vivo
Conditions: 5 min postadministration, CD1 mice
Description: To further investigate the whole-body distribution of [^18F]3, ex vivo biodistribution experiments were conducted in CD1 mice at 5-, 15-, 30-, and 60 min postadministration. […] Initially, high levels of radioactivity were detected in the heart, lung, and kidney, with subsequent clearance observed in these organs over time. […] Minimal radioactivity was detected in the blood and bone at all time points throughout the study. […] These findings indicate that our tracer is relatively stable against in vivo defluorination.
A dose of 1.0 MBq of [^18F]3 in 0.1 mL saline was intravenously injected into the tail vein of CD1 mice (5–6 weeks). At various time-points (5-, 15-, 30- and 60 min) postinjection, the mice were sacrificed, and their organs were collected and weighed. The radioactivity of each organ was measured using a γ counter (PerkinElmer Wizard).

With `O=C([C@H]1C[C@@H]1c1ccc([18F])cc1)N1CCN(C2CCCC2)CC1` [[^18F]3] the brain uptake was 10.9 %ID/g.
